These results are taken from US10363251B2, “(+)-morphinans as antagonists of toll-like receptor 9 and therapeutic uses thereof” (Mallinckrodt LLC, priority 2009, dated 2019).

Series [1] deals with T1, TLR2 (Homo sapiens, UniProt O60603).
T1 construct: expressed in transfected cells; host or cells: HEK293
The experiment in a line: TLR2 antagonist screening, NF-κB-inducible SEAP reporter in HEK293 cells. It counts as cell-based. Particulars: 10 μM; stimulated with HKLM at 10^8 cell/ml. The method, then: (§1) Stimulation of TLRs 2, 3, 4, 5, 7, 8, and 9 was determined by assessing activation of the transcription factor NF-κB in HEK293 cells that were engineered to express the corresponding receptors. Assessment of TLR stimulation was based on the use of an NF-κB-inducible secreted alkaline phosphatase (SEAP) reporter system in which the SEAP reporter was under the control of a promoter inducible by NF-κB. Thus, the degree of activation of TLRs can be indirectly quantified spectrophotometrically by measuring the amount of the SEAP reporter that is produced.
(§2) The appropriate TLR-expressing cells were plated in Growth Medium in a 96-well plate (25,000-50,000 cells/well). The cells were stimulated with the appropriate positive control ligand or no ligand was added (negative control). The positive control ligands were: HKLM was used to stimulate TLR2; poly(I:C) was used to stimulate TLR3; LPS was used to stimulate TLR4; Flagellin was used to stimulate TLR5; CL097 was used to stimulate TLR7; CL075 was used to stimulate TLR8; CpG oligodeoxynucleotide (ODN) 2006 was used to stimulate TLR9. To test whether (+)-morphinans could block that activation of the TLR, the cells were pretreated with an antagonist for 30 minutes prior to addition of the positive control ligand. For this, 20 μL of the stock test compound solution (100 μM in H2O) was added to give a total volume of 200 μL. […] After a 16-20 hr incubation period at 37° C. in a CO2 incubator, 20 μL of the cell culture supernatant was added to 180 μL of QUANTI-Blue™ Media (InvivoGen, San Diego, Calif.), and the resulting solutions were incubated at 37° C. for an additional 1-3 hours according to the manufacturer's instructions. The OD's of the samples were then read at 650 nm on a Beckman Coulter AD 340C Absorbance Detector.

The target of series [2] is T2, TLR3 (Homo sapiens, UniProt O15455).
T2 construct: expressed in transfected cells; host or cells: HEK293
Nature of the series: TLR3 antagonist screening, NF-κB-inducible SEAP reporter in HEK293 cells. Type of series: cell-based. Particulars: 10 μM; stimulated with poly(I:C) at 1 μg/ml. The method, then:
as §1, §2

Series [3] has as its target T3, TLR9 (Homo sapiens, UniProt Q9NR96).
T3 construct: expressed in transfected cells; host or cells: HEK293
T3 sequence (Q9NR96 26-1032): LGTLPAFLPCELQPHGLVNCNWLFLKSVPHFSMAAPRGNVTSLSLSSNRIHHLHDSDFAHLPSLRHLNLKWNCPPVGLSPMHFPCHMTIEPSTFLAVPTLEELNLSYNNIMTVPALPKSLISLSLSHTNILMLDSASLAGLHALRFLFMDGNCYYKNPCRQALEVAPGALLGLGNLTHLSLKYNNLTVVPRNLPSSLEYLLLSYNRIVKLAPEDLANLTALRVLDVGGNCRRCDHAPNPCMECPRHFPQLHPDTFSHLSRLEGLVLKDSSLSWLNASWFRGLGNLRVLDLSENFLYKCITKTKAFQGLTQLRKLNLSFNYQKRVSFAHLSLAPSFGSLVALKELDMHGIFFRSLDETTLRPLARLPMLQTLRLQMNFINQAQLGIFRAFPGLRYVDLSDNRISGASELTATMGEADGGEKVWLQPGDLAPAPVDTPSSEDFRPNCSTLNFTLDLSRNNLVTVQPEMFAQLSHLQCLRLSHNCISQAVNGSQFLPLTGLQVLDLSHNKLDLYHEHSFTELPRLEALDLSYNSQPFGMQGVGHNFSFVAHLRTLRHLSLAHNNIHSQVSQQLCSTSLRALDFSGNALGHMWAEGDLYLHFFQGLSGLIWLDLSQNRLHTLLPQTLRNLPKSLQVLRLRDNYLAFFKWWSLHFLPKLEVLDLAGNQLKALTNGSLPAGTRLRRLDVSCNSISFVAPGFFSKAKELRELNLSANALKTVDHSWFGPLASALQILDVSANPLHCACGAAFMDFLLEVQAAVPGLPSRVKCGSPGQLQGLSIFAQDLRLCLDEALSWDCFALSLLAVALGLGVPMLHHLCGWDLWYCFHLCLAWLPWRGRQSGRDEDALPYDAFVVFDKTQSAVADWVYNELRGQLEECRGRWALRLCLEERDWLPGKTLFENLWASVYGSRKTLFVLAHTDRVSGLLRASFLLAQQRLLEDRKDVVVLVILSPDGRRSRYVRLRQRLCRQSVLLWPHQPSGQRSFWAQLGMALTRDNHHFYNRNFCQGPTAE
Nature of the series: TLR9 antagonist screening, NF-κB-inducible SEAP reporter in HEK293 cells. Type of series: cell-based. The note with it: 10 μM; stimulated with CpG ODN 2006 at 100 ng/ml. The method, then:
as §1, §2

Series [4] concerns the target T4, TLR5 (Homo sapiens, UniProt O60602).
T4 construct: expressed in transfected cells; host or cells: HEK293
The experiment in a line: TLR5 antagonist screening, NF-κB-inducible SEAP reporter in HEK293 cells. It counts as cell-based. Particulars: 10 μM; stimulated with Flagellin at 100 ng/ml. The method, then: as §1, §2

Series [5] has as its target T5, TLR4 (Homo sapiens, UniProt O00206).
T5 construct: expressed in transfected cells; host or cells: HEK293
Nature of the series: TLR4 antagonist screening, NF-κB-inducible SEAP reporter in HEK293 cells. Type of series: cell-based. The note with it: 10 μM; stimulated with LPS at 100 ng/ml. The method, then: as §1, §2

For series [6], the target named is T3, TLR9. The experiment in a line: TLR9 screening of (+)-morphinan library, SEAP reporter in HEK293 cells expressing TLR9. Type of series: cell-based. The note with it: activator ODN2006; for OD 650 nm (mean ± sd): control (no activator) 0.14, activator 1.42 OD; for inhibition at 0.1 µM: HEK293, read-out: % Inhibition (mean), 100 nM; for inhibition at 10 µM: HEK293, read-out: % Inhibition (mean), 10 μM. The method in brief: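 HEK293 cells expressing TLR9 with an NF-κB-inducible SEAP reporter were preincubated with compound at 10 μM and 100 nM for 30 min at 37 °C, then stimulated with ODN2006. SEAP was read as OD 650 nm after 16-20 h, in triplicate.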

Series [7] relates to Experimental Autoimmune Encephalomyelitis (EAE). The note with it: bid for 20 days; Cmpd II-98 5 mg/kg sc, others 20 mg/kg sc, Prednisolone 4.5 mg/kg ip; vs vehicle control.
Series [8] deals with APAP-induced liver toxicity. Nature of the series: Acetaminophen (APAP)-induced hepatotoxicity model. Type of series: in vivo, mouse. The note with it: APAP 500 mg/Kg ip, 12 hours post-APAP. The method, then:
For this, APAP-induced liver toxicity was induced in male C57BL/6 mice aged between 8-10 weeks by a single intraperitoneal (ip) injection of APAP in PBS at a dose of 500 mg/Kg (Imaeda et al. (2009) J. Clin. Invest. 119(2):305-314). The ability of (+)-morphinans to reduce liver toxicity was tested in the following groups:
The (+)-morphinan (or PBS) was either administered as a single subcutaneous (sc) or ip injection concurrent with the APAP injection or one hour prior to the APAP injection.
The mice were sacrificed 12 hours post-APAP treatment. Liver samples were stained with H&E and analyzed for signs of necrosis and hemorrhage. Histology scores were assigned using the standard rating scale. The levels of serum alanine transaminase (ALT) were also measured in each animal using a standard assay.

The nature of series [9]: Dissolution of compound in dosing vehicle (EAE study). Type of series: physicochemical. Particulars: 20 mg/kg in sterile dd H2O; delivered as a suspension. The text has this: It is not known whether the suspension dissolved adequately in the body to provide sufficient plasma concentration for efficacy.

Each structure is given as a SMILES string.

The inhibition is how much of the control response was suppressed.

T4 sequence (O60602 21-858, species assumed): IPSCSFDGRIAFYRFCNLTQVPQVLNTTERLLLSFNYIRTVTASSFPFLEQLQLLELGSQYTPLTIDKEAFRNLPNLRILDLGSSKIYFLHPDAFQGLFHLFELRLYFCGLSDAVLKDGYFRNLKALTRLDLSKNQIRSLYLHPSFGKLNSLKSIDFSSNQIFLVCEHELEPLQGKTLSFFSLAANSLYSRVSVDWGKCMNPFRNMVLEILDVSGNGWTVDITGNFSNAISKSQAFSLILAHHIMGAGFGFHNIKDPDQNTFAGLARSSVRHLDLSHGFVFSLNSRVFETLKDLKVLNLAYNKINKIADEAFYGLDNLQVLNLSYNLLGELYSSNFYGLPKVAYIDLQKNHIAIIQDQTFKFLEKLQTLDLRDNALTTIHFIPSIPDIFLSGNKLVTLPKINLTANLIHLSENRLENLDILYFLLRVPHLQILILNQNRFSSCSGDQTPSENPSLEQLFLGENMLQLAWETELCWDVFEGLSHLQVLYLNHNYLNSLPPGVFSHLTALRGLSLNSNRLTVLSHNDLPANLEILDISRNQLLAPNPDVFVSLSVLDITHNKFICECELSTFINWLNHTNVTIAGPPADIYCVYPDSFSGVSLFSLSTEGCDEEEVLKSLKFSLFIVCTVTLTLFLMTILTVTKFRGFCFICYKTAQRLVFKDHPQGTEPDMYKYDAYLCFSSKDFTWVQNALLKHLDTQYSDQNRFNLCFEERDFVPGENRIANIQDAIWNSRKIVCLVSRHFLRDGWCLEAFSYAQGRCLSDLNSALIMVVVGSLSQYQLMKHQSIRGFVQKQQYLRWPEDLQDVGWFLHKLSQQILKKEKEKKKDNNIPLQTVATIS
T2 sequence (O15455 24-904, species assumed): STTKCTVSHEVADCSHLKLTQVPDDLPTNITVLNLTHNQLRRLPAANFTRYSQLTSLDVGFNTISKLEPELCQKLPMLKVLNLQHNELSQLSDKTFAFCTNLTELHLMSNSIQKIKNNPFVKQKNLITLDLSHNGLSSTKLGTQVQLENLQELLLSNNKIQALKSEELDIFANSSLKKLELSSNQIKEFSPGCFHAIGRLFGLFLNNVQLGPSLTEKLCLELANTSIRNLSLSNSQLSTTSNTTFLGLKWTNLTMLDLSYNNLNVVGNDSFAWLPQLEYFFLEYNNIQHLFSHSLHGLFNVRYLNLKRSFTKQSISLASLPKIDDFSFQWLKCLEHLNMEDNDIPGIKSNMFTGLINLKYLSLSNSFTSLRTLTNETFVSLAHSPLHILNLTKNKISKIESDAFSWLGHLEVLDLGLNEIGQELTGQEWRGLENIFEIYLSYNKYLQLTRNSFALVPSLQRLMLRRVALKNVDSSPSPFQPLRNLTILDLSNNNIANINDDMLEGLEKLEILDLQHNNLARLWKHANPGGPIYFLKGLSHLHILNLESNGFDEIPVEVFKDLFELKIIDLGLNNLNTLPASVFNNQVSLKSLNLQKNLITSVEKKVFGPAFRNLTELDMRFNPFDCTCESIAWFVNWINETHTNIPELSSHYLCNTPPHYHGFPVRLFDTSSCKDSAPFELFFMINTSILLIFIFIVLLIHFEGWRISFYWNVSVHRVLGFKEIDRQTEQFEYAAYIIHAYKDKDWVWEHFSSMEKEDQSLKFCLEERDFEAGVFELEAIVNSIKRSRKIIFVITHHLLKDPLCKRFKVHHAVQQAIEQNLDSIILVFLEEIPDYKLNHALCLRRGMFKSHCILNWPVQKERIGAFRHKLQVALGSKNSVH
T5 sequence (O00206 24-839, species assumed): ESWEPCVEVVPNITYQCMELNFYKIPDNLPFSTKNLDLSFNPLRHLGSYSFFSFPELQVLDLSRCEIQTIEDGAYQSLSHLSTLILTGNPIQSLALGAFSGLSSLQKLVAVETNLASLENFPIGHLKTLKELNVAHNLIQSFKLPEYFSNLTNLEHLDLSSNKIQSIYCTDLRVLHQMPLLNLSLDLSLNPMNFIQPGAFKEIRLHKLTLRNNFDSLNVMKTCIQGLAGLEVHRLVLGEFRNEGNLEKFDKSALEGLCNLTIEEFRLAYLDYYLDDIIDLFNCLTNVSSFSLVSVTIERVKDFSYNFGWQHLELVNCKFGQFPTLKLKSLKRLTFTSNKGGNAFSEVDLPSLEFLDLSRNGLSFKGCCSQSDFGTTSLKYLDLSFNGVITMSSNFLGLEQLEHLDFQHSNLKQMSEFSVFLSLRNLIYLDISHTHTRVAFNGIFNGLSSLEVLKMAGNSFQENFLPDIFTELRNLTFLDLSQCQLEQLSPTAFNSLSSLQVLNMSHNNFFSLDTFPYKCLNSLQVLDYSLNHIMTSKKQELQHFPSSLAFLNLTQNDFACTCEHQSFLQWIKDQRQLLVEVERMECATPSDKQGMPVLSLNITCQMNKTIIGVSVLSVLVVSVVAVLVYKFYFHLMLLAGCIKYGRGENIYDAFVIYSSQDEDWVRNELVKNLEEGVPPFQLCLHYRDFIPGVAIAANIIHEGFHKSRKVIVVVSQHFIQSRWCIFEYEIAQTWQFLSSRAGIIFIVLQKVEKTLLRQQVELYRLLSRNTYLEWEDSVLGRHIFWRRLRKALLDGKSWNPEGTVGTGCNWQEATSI
T5 sequence (Q9Y6Y9 17-160 partner limits assumed, species assumed): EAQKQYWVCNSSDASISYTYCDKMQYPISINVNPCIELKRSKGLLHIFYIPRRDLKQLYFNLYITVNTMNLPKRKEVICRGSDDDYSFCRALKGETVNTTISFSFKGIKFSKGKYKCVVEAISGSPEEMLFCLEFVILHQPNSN
T1 sequence (O60603 21-784, species assumed): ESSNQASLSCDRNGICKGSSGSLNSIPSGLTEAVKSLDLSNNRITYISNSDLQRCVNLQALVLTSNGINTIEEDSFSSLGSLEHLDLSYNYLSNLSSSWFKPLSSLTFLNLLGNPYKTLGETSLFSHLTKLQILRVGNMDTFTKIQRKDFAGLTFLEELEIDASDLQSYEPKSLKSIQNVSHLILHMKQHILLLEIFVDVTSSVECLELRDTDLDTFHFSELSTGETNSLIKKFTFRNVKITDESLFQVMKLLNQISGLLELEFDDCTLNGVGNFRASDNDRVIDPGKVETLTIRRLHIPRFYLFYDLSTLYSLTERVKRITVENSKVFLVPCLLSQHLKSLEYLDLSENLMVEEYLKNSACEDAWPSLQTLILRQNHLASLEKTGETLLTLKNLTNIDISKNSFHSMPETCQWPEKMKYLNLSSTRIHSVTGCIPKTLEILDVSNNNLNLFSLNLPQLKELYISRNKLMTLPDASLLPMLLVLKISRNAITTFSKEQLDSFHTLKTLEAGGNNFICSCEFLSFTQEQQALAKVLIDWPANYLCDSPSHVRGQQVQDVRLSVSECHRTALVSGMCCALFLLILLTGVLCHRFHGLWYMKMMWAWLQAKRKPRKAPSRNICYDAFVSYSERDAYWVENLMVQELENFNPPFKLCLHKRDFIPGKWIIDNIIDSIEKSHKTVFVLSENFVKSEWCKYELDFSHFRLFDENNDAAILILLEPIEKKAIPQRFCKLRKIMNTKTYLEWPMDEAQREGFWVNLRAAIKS

As for `O=C1CC[C@]2(O)[C@@H]3Cc4ccc(O)c5c4[C@]2(CCN3CC2CC2)[C@@H]1O5` [(+)-Naltrexone, (+)-naltrexone], the “Average % Inhibition at TLR2” value in series [1] was determined as 21%. Moreover, the “Average % Inhibition at TLR3” value in [2] is 22%. For the same molecule, in series [3], the “Average % Inhibition at TLR9” value is 51%. Further, the “Average % Inhibition at TLR5” value in [4] amounted to 22%. In [5], the “Average % Inhibition at TLR4” value came to 24%.
For the molecule `COc1ccc2c3c1O[C@@H]1C(=O)CC[C@@H]4[C@H](C2)N(CC2CC2)CC[C@@]314` [II-24], the “OD 650 nm (mean ± sd)” value in series [6] (100 nM) was determined as 0.65 ± 0.04 OD; in [6] (10 μM), 0.09 ± 0.01 OD. The inhibition at 0.1 µM in series [6] is 54%. Further, the inhibition at 10 µM in series [6] came to 94%. Moreover, in series [7], the EAE clinical scores result is recorded as “did not improve EAE”. Further, in [8] (test doses and timing per Table 6), the “Protection from APAP-induced toxicity” value is “None of compounds II-24, II-93, or III-2 provided any protection”. Also, the “Liver histology scores (necrosis and hemorrhage)” value in series [8] (vs APAP alone) is recorded as “about the same as those only exposed to APAP”.
With `COC1=CC=C2[C@@H]3Cc4ccc(OC)c5c4[C@]2(CCN3)[C@@H]1O5` [II-38], the “OD 650 nm (mean ± sd)” value in [6] (100 nM) was determined as 0.86 ± 0.01 OD; in series [6] (10 μM) it was 0.12 ± 0.01 OD. The inhibition at 0.1 µM in series [6] amounted to 40%. In addition, the inhibition at 10 µM in series [6] came out at 92%. The EAE clinical scores entry in series [7] is reported as “did not improve EAE”. In addition, the “Dissolution in dosing vehicle” value in series [9] was “did not dissolve into a solution”.
